“Also recorded” adds a separate entry of the source. Like-named read-outs stand apart in the source and are kept apart here.
Key:
NF-κB = experiment: NF-κB-bla THP-1 β-lactamase reporter assay; type: cell-based, human
[1] = system: CD1 male mice, carrageenan-λ induced pleurisy; experiment: carrageenan-λ induced lung (pleural cavity) inflammation in mice; type: in vivo, mouse; conditions: for number of neutrophils relative to untreated carrageenan-λ control (100%): 4 h after carrageenan
MG-63 cells = experiment: reversal of glucocorticoid effects in MG-63 osteosarcoma cells; type: cell-based, human
female SJL mice, EAE = experiment: experimental autoimmune encephalomyelitis (EAE), PLP-induced, Example 23; type: in vivo, mouse; conditions: for course of EAE compared to vehicle-treated mice: 0.1 mg q.d. po from clinical onset; for mean cumulative score, treatment period (day 1 to 30): vehicle 24.8±7.8; for mean cumulative score, follow-up period (day 31 to day 54): vehicle 22.7±15.8
[2] = metabolic stability in liver microsomes: human; conditions: 10 min
Description: (§1) The protocol was performed as follows. […] (2) Set up samples as follows. […] (4) The internal standard/acetonitrile solution.

[3] = metabolic stability in liver microsomes: mouse; conditions: 10 min
Description: as §1

[4] = Homo sapiens, THP-1, read-out: IC50, this protocol
[5] = anti-inflammatory activity in this protocol, read-out: IC50
[6] = 0.1 mg q.d. po from clinical onset to day 30
[7] = Homo sapiens, THP-1, read-out: IC50 for inhibition of NF-κB activation, after LPS stimulation, 50% of the maximum inhibition the compound can induce, averages of 2-4 assays
[8] = after LPS stimulation, 50% of the maximum inhibition the compound can induce, averages of 2-4 assays, read-out: IC50 for inhibition of NF-κB activation
[9] = compounds increased NF-κB activity, read-out: IC50 of compounds that increased NF-κB activity

C[C@]12CC[C@H]3[C@@H](CCC4C[C@H](O)CC[C@@]43C)[C@@H]1C[C@@H](O)[C@@H]2O (stereo partly drawn) [3α,16α,17β-trihydroxyandrostane]
IC50 (NF-κB; [4]): 6900 nM

C[C@]12CC[C@H]3[C@@H](CCC4C[C@H](O)CC[C@@]43C)[C@@H]1C[C@H](O)[C@@H]2O (stereo partly drawn) [3α,16β,17β-trihydroxyandrostane]
IC50 (NF-κB; [4]): 19000 nM | number of neutrophils relative to untreated carrageenan-λ control (100%) ([1]; 0.001 mg s.c. 24 h and 1 h before carrageenan-λ): 95% | number of neutrophils relative to untreated carrageenan-λ control (100%) ([1]; 0.01 mg s.c. 24 h and 1 h before carrageenan-λ): 50% | number of neutrophils in the pleura ([1]; 0.1 mg and 0.01 mg doses s.c.): significant reduction | number of neutrophils relative to untreated carrageenan-λ control (100%) ([1]; 0.1 mg s.c. 24 h and 1 h before carrageenan-λ): 42%

C[C@]12CC[C@H]3[C@@H](CCC4=C[C@H](O)CC[C@@]43C)[C@@H]1CC[C@@H]2O [3α,17β-dihydroxyandrost-4-ene]
dexamethasone induced 11β-HSD mRNA (MG-63 cells; similar protocols): decrease | reversal of dexamethasone-induced suppression of IL-8 and IL-6 (MG-63 cells; similar protocols): statistically significant reversal

CC12CCC(O)(C(F)(F)C(F)(F)F)C=C1CCC1C2CCC2(C)C(O)CCC12 (stereo not drawn) [3α-pentafluoroethylandrost-4-ene-3β,17β-diol]
IC50 (NF-κB; [5]): 3.1 nM

C[C@]12CC[C@H]3[C@@H](CC=C4C[C@](O)(C(F)(F)C(F)(F)F)CC[C@@]43C)[C@@H]1CC[C@@H]2O [3α-pentafluoroethylandrost-5-ene-3β,17β-diol]
IC50 (NF-κB; [5]): 17 nM | maximum NF-κB inhibition (NF-κB; this protocol): 50%

C[C@]12CC[C@H]3[C@@H](CC=C4C[C@](O)(C(F)(F)F)CC[C@@]43C)[C@@H]1CC[C@@H]2O [3α-trifluoromethylandrost-5-ene-3β,17β-diol]
course of EAE compared to vehicle-treated mice (female SJL mice, EAE): significantly improved course of EAE | mean cumulative score, treatment period (day 1 to 30) (female SJL mice, EAE; [6]): 11.2±4.8 | mean cumulative score, follow-up period (day 31 to day 54) (female SJL mice, EAE; after end of treatment): 10.8±10.3

C[C@]12CC[C@H]3[C@@H]([C@H](O)C=C4C[C@@H](O)CC[C@@]43C)[C@@H]1CC[C@@H]2O [3β,7α,17β-trihydroxyandrost-5-ene]
IC50 (NF-κB; [7]): > 10000 nM

C[C@]12C[C@H](O)[C@H]3[C@@H]([C@@H](O)C=C4C[C@@H](O)CC[C@@]43C)[C@@H]1CC[C@@H]2O [3β,7β,11β,17β-tetrahydroxyandrost-5-ene]
IC50 (NF-κB; [7]): > 10000 nM

C[C@]12CC[C@H](O)CC1=C[C@H](O)[C@@H]1[C@@H]2CC[C@@]2(C)[C@H]1CC[C@]2(C)O [3β,7β,17β-trihydroxy-17α-methylandrost-5-ene]
osteoprotegerin levels in the presence of 30 nM dexamethasone (MG-63 cells; 10 nM compound): normal osteoprotegerin levels

CC12CCC(O)CC1=CC(O)C1C2CCC2(C)C1CCC2(O)C(F)(F)F (stereo not drawn) [3β,7β,17β-trihydroxy-17α-trifluoromethylandrost-5-ene]
IC50 (NF-κB; [8]): > 10000 nM | osteoprotegerin levels in the presence of 30 nM dexamethasone (MG-63 cells; 1 μM compound): normal or basal osteoprotegerin levels

C[C@]12CC[C@H](O)CC1=CC[C@@H]1[C@@H]2[C@H](O)C[C@]2(C)C(=O)CC[C@@H]12 [3β,11α-dihydroxy-17-oxoandrost-5-ene]
IC50 (NF-κB; [7]): > 10000 nM

C[C@]12CC[C@H]3[C@@H](CC=C4C[C@@H](O)CC[C@@]43C)[C@@H]1CC[C@H]2O [3β,17α-dihydroxyandrost-5-ene]
IC50 (NF-κB; [4]): > 10000 nM

C[C@@]1(O)CC[C@@]2(C)[C@@H](CC[C@@H]3[C@@H]2CC[C@@]2(C)[C@H]3CC[C@]2(C)O)C1 [3β,17α-dimethylandrostane-3α,17β-diol]
IC50 (NF-κB; [9]): 40 nM

CC12CCC(O)CC1=CC(=O)C1C2CCC2(C)C1CCC2(C)O (stereo not drawn) [3β,17β-dihydroxy-7-oxo-17α-methylandrost-5-ene]
IC50 (NF-κB; [8]): > 10000 nM | osteoprotegerin levels in the presence of 30 nM dexamethasone (MG-63 cells; 100 nM compound): increased osteoprotegerin levels

CC(=O)O[C@H]1CC[C@@]2(C)C(=C[C@H](O)[C@H]3[C@@H]4CC[C@H](O)[C@@]4(C)CC(=O)[C@@H]32)C1 [3β-acetoxy-7β,17β-dihydroxy-11-oxoandrost-5-ene]
IC50 (NF-κB; [4]): 1000 nM | maximum NF-κB inhibition (NF-κB; this protocol): 65%

C[C@]12CC[C@H]3[C@@H](CCC4C[C@@H](C(=O)CN)CC[C@@]43C)[C@@H]1CC[C@@H]2O (stereo partly drawn) [3β-glycylandrostane-17β-ol]
IC50 (NF-κB; Homo sapiens, THP-1, read-out: IC50, anti-inflammatory activity in this protocol): 1 nM

C[C@]12CC[C@H](O)CC1CC(=O)[C@@H]1[C@@H]2CC[C@]2(C)C(=O)CC[C@@H]12 (stereo partly drawn) [3β-hydroxyandrostane-7,17-dione]
IC50 (NF-κB; [4]): > 10000 nM

C[C@]12CC[C@H](O)C[C@@H]1CC[C@@H]1[C@@H]2CC[C@]2(C)[C@@H](O)C(=NO)C[C@@H]12 [5α-androstane-3β,17β-diol-16-oxime]
course of EAE compared to vehicle-treated mice (female SJL mice, EAE): very similar to that observed in the vehicle-treated mice

CC(=O)O[C@@H]1C[C@H]2[C@@H]3[C@@H](O)C=C4C[C@@H](O)CC[C@]4(C)[C@H]3CC[C@]2(C)[C@H]1O [16α-acetoxy-3β,7β,17β-trihydroxyandrost-5-ene]
IC50 (NF-κB; Homo sapiens, THP-1, after LPS stimulation, 50% of the maximum inhibition the compound can induce, averages of 2-4 assays, read-out: IC50 for inhibition of NF-κB activation): > 10000 nM

C[C@]12CC[C@H]3[C@@H](CC=C4C[C@@H](O)CC[C@@]43C)[C@@H]1C[C@@H](Br)[C@@H]2O [16α-bromo-3β,17β-dihydroxyandrost-5-ene]
IC50 (NF-κB; [4]): > 10000 nM

C[C@]12CCCCC1=CC[C@@H]1[C@@H]2CC[C@]2(C)C(=O)[C@H](F)C[C@@H]12 [16α-fluoroandrost-5-ene-17-one]
IC50 (NF-κB; [4]): 30000 nM

C[C@]12CCCCC1CC[C@@H]1[C@@H]2CC[C@]2(C)C(=O)[C@H](F)C[C@@H]12 (stereo partly drawn) [16α-fluoroandrostane-17-one]
IC50 (NF-κB; [4]): > 10000 nM

C[C@]12CC[C@H](O)CC1=CC[C@@H]1[C@@H]2CC[C@]2(C)C(=O)[C@@H](Br)C[C@@H]12 [16β-bromo-3β-hydroxyandrost-5-ene-17-one]
IC50 (NF-κB; [4]): > 10000 nM

C[C@]12CC[C@H](O)C[C@@H]1CC[C@@H]1[C@@H]2CC[C@]2(C)C(=O)[C@@H](Br)C[C@@H]12 [16β-bromoepiandrosterone]
maximum NF-κB inhibition (NF-κB; this protocol): 100%

C[C@]12CCCCC1=C[C@H](O)[C@@H]1[C@@H]2CC[C@]2(C)C(=O)[C@@H](F)C[C@@H]12 [16β-fluoroandrost-5-ene-7β-ol-17-one]
IC50 (NF-κB; [5]): 1.5 nM

C#C[C@]1(O)CC[C@H]2[C@@H]3CCC4=CC(=O)CC[C@]4(C)[C@H]3CC[C@@]21C [17α-ethynylandrost-4-ene-3-one-17β-ol]
maximum NF-κB inhibition (NF-κB; this protocol): 80% | IC50 (NF-κB; this protocol, read-out: IC50): 2900 nM

C[C@]12CC[C@H](O)CC1=CC[C@@H]1[C@@H]2CC[C@@]2(C)[C@H]1CC[C@@]2(O)C(F)(F)F [17α-trifluoromethylandrost-5-ene-3β,17β-diol]
course of EAE compared to vehicle-treated mice (female SJL mice, EAE): significantly improved course of EAE

CC12CCC(O)CC1CCC1C2CCC2(C)C1CCC2(O)C(F)(F)F (stereo not drawn) [17α-trifluoromethylandrostane-3α,17β-diol]
IC50 (NF-κB; [5]): 190 nM

C#C[C@@]1(O)CC[C@H]2[C@@H]3[C@@H](O)C=C4C[C@@H](O)CC[C@]4(C)[C@H]3CC[C@@]21C [17β-ethynylandrost-5-ene-3β,7β,17α-triol]
EAE incidence at the end of the treatment period (female SJL mice, EAE; 0.1 mg q.d. po): 57.1% | course of EAE compared to vehicle-treated mice (female SJL mice, EAE): trend toward reduced cumulative score and duration | duration of the disease (female SJL mice, EAE; 0.1 mg q.d. po from clinical onset to day 30, vehicle 12.3±4.3): 7 ± 7.9 days | mean cumulative score, treatment period (day 1 to 30) (female SJL mice, EAE; [6]): 14.9±17.6 | EAE incidence at the end of the follow-up period (female SJL mice, EAE; after end of treatment): 85.7% | mean cumulative score, follow-up period (day 31 to day 54) (female SJL mice, EAE; after end of treatment): 18.4±20.6

C[C@]12CC[C@H]3[C@@H](CCC4C[C@@H](O)CC[C@@]43C)[C@@H]1CC[C@@H]2C(=O)CN (stereo partly drawn) [17β-glycylandrostane-3β-ol]
IC50 (NF-κB; [4]): 420 nM

Cc1cc(C)c(/C=C2\C(=O)Nc3ccccc32)[nH]1 [SU5416, Z-3-[(2,4-dimethylpyrrol-5-yl)methylidenyl]-2-indolinone, reference compound]
course of EAE compared to vehicle-treated mice (female SJL mice, EAE): very similar to that observed in the vehicle-treated mice; also recorded: ineffective | mean cumulative score, treatment period (day 1 to 30) (female SJL mice, EAE; [6]): 25.5±8.9 | mean cumulative score, follow-up period (day 31 to day 54) (female SJL mice, EAE; after end of treatment): 35.5±13.2

C[C@]12CC[C@H]3[C@@H]([C@H](O)C=C4C[C@H](O)CC[C@@]43C)[C@@H]1C[C@@H](O)[C@@H]2O [androst-5-ene-3α,7α,16α,17β-tetrol]
parent remaining human microsomes [2]: 100% (10 min) | parent remaining mouse microsomes [3]: 100% (10 min)

C[C@]12CC[C@H]3[C@@H](CC=C4C[C@H](O)CC[C@@]43C)[C@@H]1CC[C@@H]2O [androst-5-ene-3α,17β-diol]
IC50 (NF-κB; [4]): > 10000 nM

C[C@]12CC[C@H](O)CC1=C[C@@H](O)[C@@H]1[C@@H]2CC[C@]2(C)C(=O)[C@H](O)C[C@@H]12 [androst-5-ene-3β,7α,16α-triol-17-one]
NF-κB activity compared to control cells (NF-κB; compound increased NF-κB activity): 140% | IC50 (NF-κB; [9]): 1.3 nM

C[C@]12CC[C@H]3[C@@H](C(=NO)C=C4C[C@@H](O)CC[C@@]43C)[C@@H]1CC[C@@H]2O [androst-5-ene-3β,17β-diol-7-oxime]
reversal of the decrease in osteoprotegerin in the presence of 30 nM dexamethasone (MG-63 cells; concentration not given): partially reversed

C[C@]12C[C@H](O)[C@H]3[C@@H](CC=C4C[C@@H](O)CC[C@@]43C)[C@@H]1CC[C@@H]2O [androst-5-ene-3β, 11β,17β-triol]
IC50 (NF-κB; [4]): > 10000 nM

C[C@]12CC[C@H]3[C@@H](CC=C4C[C@@H](O)CC[C@@]43C)[C@@H]1CC[C@@H]2OC(=O)CCC(=O)O [androst-5-ene-3β-ol-17β-succinyl ester]
IC50 (NF-κB; [5]): 0.2 nM

C[C@]12CC[C@H](O)CC1CC[C@@H]1[C@@H]2CC[C@]2(C)C(=NO)[C@@H](O)C[C@@H]12 (stereo partly drawn) [androstane-3β,16β-diol-17-oxime]
IC50 (NF-κB; this protocol, read-out: IC50): 1900 nM

TNFα
EC50 for activation of NF-κB (NF-κB; positive control assays, 1 hour β-lactamase substrate incubation): 0.20 ng/mL

From patent US20080153792A1, “Drug Identification and Treatment Method” (priority 2006, published 2008)
